# Active and inactive are the calls of the source. The calls are words filed in the database; no cut-off is given here.
# Key:
# HCT-116 [1] = experiment: Induction of apoptosis in human HCT-116 cells assessed as early apoptotic cells at 1.5 uM incubated for 48 hrs by AnnexinV-FITC/PI staining based flow cytometry (reference value: 2.11%); assay type: functional
# HCT-116 [2] = experiment: Induction of apoptosis in human HCT-116 cells assessed as early apoptotic cells at 7.5 uM incubated for 48 hrs by AnnexinV-FITC/PI staining based flow cytometry (reference value: 2.11%); assay type: functional
# [3] = target: Poly [ADP-ribose] polymerase 1 (Homo sapiens, UniProt P09874); experiment: Inhibition of human PARP-1 by ELISA
# HCT-116 [4] = experiment: Inhibition of cell migration in human HCT-116 cells at 0.3 uM incubated for 48 hrs by wound healing assay; assay type: functional
# HCT-116 [5] = experiment: Induction of apoptosis in human HCT-116 cells assessed as necrotic cells at 1.5 uM incubated for 72 hrs by AnnexinV-FITC/PI staining based analysis (reference value: 0%); assay type: functional
# [6] = Cytotoxicity against human NCM460 cells assessed as reduction in cell viability incubated for 48 hrs by MTT assay; assay type: toxicity, cell-based
# HCT-116 [7] = experiment: Induction of cell cycle arrest in human HCT-116 cells assessed as accumulation of cells at G2/M phase at 0.3 uM incubated for 72 hrs by PI staining based flow cytometry (reference value: 25.4%); assay type: functional
# HCT-116 [8] = experiment: Induction of cell cycle arrest in human HCT-116 cells assessed as accumulation of cells at G2/M phase at 7.5 uM incubated for 48 hrs by PI staining based flow cytometry (reference value: 24.7%); assay type: functional
# HCT-116 [9] = experiment: Induction of cell cycle arrest in human HCT-116 cells assessed as accumulation of cells at S phase at 0.3 uM incubated for 48 hrs by PI staining based flow cytometry (reference value: 14.5%); assay type: functional
# HCT-116 [10] = experiment: Induction of mitochondrial membrane potential loss in human HCT-116 cells assessed as increase in monomer JC-1 level by measuring green fluorescence intensity at 3 uM incubated for 48 hrs by immunofluorescence analysis; assay type: functional, cell-based
# HCT-116 [11] = experiment: Induction of cell cycle arrest in human HCT-116 cells assessed as accumulation of cells at G0/G1 phase at 1.5 uM incubated for 72 hrs by PI staining based flow cytometry (reference value: 57.2%); assay type: functional
# [12] = Selectivity index, ratio of IC50 for cytotoxicity against human NCM460 cells to IC50 for antiproliferative activity against human HCT-116 cells; assay type: toxicity, cell-based; conditions: NCM460 cells and HCT-116 cells, read-out: Ratio IC50
# HCT-116 [13] = experiment: Inhibition of colony formation in human HCT-116 cells at 3 uM pretreated for 48 hrs followed by replacement of fresh medium and measured every 3 days by crystal violet staining based analysis; assay type: functional
# HCT-116 [14] = experiment: Induction of cell cycle arrest in human HCT-116 cells assessed as accumulation of cells at G0/G1 phase at 0.3 uM incubated for 48 hrs by PI staining based flow cytometry (reference value: 62.1%); assay type: functional
# HCT-116 [15] = experiment: Induction of apoptosis in human HCT-116 cells assessed as necrotic cells at 1.5 uM incubated for 48 hrs by AnnexinV-FITC/PI staining based flow cytometry (reference value: 0%); assay type: functional
# HCT-116 [16] = experiment: Induction of apoptosis in human HCT-116 cells assessed as late apoptotic cells at 7.5 uM incubated for 72 hrs by AnnexinV-FITC/PI staining based analysis (reference value: 0%); assay type: functional
# HCT-116 [17] = experiment: Inhibition of cell migration in human HCT-116 cells at 1 uM incubated for 48 hrs by wound healing assay; assay type: functional
# HCT-116 [18] = experiment: Induction of mitochondrial membrane potential loss in human HCT-116 cells assessed as JC-1 monomer level by measuring green fluorescence intensity at 1 uM incubated for 48 hrs by JC-1 staining based flow cytometry (reference value: 3.28%); assay type: functional
# HCT-116 [19] = experiment: Induction of apoptosis in human HCT-116 cells assessed as viable cells at 7.5 uM incubated for 72 hrs by AnnexinV-FITC/PI staining based analysis (reference value: 98.95%); assay type: functional; conditions: read-out: Activity
# HCT-116 [20] = experiment: Induction of apoptosis in human HCT-116 cells assessed as viable cells at 1.5 uM incubated for 48 hrs by AnnexinV-FITC/PI staining based flow cytometry (reference value: 97.89%); assay type: functional; conditions: read-out: Activity
# HCT-116 [21] = experiment: Induction of apoptosis in human HCT-116 cells assessed as late apoptotic cells at 0.3 uM incubated for 48 hrs by AnnexinV-FITC/PI staining based flow cytometry (reference value: 0%); assay type: functional
# HCT-116 [22] = experiment: Inhibition of colony formation in human HCT-116 cells pretreated for 48 hrs followed by replacement of fresh medium and measured every 3 days by crystal violet staining based analysis; assay type: functional, cell-based; conditions: dose 0.3-3 µM
# HCT-116 [23] = experiment: Induction of apoptosis in human HCT-116 cells assessed as decrease in Bcl-2 protein expression incubated for 48 hrs by western blot analysis; assay type: functional, cell-based; conditions: dose 0.3-3 µM
# HCT-116 [24] = experiment: Induction of mitochondrial membrane potential loss in human HCT-116 cells assessed as JC-1 monomer level by measuring green fluorescence intensity at 0.3 uM incubated for 48 hrs by JC-1 staining based flow cytometry (reference value: 3.28%); assay type: functional
# HCT-116 [25] = experiment: Induction of cell cycle arrest in human HCT-116 cells assessed as accumulation of cells at G2/M phase at 1.5 uM incubated for 48 hrs by PI staining based flow cytometry (reference value: 24.7%); assay type: functional
# HCT-116 [26] = experiment: Induction of apoptosis in human HCT-116 cells assessed as increase in cleaved caspase-3 protein expression incubated for 48 hrs by western blot analysis; assay type: functional, cell-based; conditions: dose 0.3-3 µM
# DLD-1 = experiment: Antiproliferative activity against human DLD-1 cells assessed as reduction in cell viability incubated for 48 hrs by MTT assay; assay type: functional, cell-based; conditions: DLD-1, 48 h
# HCT-116 [27] = experiment: Induction of apoptosis in human HCT-116 cells assessed as necrotic cells at 0.3 uM incubated for 48 hrs by AnnexinV-FITC/PI staining based flow cytometry (reference value: 0%); assay type: functional
# HCT-116 [28] = experiment: Induction of cell cycle arrest in human HCT-116 cells assessed as accumulation of cells at S phase at 0.3 uM incubated for 72 hrs by PI staining based flow cytometry (reference value: 16.7%); assay type: functional
# HCT-116 [29] = experiment: Inhibition of cell migration in human HCT-116 cells at 0.3 uM incubated for 24 hrs by wound healing assay; assay type: functional
# HCT-116 [30] = experiment: cells; conditions: Homo sapiens, HCT-116, 48 h
# HCT-116 [31] = experiment: Induction of cell cycle arrest in human HCT-116 cells assessed as accumulation of cells at G2/M phase at 1.5 uM incubated for 72 hrs by PI staining based flow cytometry (reference value: 25.4%); assay type: functional
# HCT-116 [32] = experiment: Induction of cell cycle arrest in human HCT-116 cells assessed as accumulation of cells at G0/G1 phase at 1.5 uM incubated for 48 hrs by PI staining based flow cytometry (reference value: 62.1%); assay type: functional
# HCT-116 [33] = experiment: Induction of apoptosis in human HCT-116 cells assessed as viable cells at 0.3 uM incubated for 72 hrs by AnnexinV-FITC/PI staining based analysis (reference value: 98.95%); assay type: functional; conditions: read-out: Activity
# SW480 = experiment: cells; conditions: Homo sapiens, SW480, 48 h
# Description: Antiproliferative activity against human SW480 cells assessed as reduction in cell viability incubated for 48 hrs by MTT assay
# Sequence of Poly [ADP-ribose] polymerase 1 (P09874 whole entry): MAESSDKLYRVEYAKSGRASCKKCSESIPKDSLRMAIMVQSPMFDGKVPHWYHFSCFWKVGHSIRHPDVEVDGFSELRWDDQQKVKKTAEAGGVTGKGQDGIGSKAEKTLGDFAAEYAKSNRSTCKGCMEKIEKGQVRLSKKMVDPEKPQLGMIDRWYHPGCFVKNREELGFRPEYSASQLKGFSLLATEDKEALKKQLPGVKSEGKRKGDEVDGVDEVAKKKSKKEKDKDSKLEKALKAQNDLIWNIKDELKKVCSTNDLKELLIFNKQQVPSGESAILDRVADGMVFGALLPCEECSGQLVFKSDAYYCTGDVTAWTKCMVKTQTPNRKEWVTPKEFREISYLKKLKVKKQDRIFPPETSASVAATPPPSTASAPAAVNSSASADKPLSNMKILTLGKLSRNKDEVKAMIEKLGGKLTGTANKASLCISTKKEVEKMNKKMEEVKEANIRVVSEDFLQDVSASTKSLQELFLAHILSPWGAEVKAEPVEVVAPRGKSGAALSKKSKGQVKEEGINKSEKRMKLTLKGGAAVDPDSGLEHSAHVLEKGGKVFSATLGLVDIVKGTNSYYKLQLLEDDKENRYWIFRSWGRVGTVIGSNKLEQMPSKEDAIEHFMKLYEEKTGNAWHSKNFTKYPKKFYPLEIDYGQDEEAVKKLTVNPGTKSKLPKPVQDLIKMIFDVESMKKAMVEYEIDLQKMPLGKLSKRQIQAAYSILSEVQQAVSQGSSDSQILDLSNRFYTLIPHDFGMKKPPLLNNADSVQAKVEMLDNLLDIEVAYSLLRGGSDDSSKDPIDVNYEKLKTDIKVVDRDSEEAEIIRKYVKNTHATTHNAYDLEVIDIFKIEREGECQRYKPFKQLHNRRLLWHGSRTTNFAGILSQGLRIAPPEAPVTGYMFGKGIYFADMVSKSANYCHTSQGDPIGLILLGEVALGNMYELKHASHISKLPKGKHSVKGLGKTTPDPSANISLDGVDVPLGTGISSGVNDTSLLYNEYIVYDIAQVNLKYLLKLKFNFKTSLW
smiles,measurement,setting,value
NC(=O)c1ccccc1OCc1cccc(NC(=O)c2ccc(Br)cc2)c1,Activity,HCT-116 [1],22.69%
same,Activity,HCT-116 [2],40.9%
same,IC50,[3],0.25 nM
same,inhibition at 0.3 µM,HCT-116 [4],30.5%
same,Activity,HCT-116 [5],0.01%
same,IC50 at 48 h,[6],487000 nM
same,Activity,HCT-116 [7],29.6%
same,Activity,HCT-116 [8],41%
same,Activity,HCT-116 [9],11%
same,Activity,HCT-116 [10],Active
same,Activity,HCT-116 [11],45.1%
same,selectivity ratio,[12],1640
same,inhibition at 3 µM,HCT-116 [13],100%
same,Activity,HCT-116 [14],60.7%
same,Activity,HCT-116 [15],1.38%
same,Activity,HCT-116 [16],0.05%
same,inhibition at 1 µM,HCT-116 [17],36.3%
same,Activity,HCT-116 [18],14.16%
same,viability at 7.5 µM,HCT-116 [19],20.5%
same,viability at 1.5 µM,HCT-116 [20],73%
same,Activity,HCT-116 [21],0.25%
same,inhibition,HCT-116 [22],Dose-Dependent Effect
same,Activity,HCT-116 [23],Dose-Dependent Effect
same,Activity,HCT-116 [24],9.38%
same,Activity,HCT-116 [25],33%
same,Activity,HCT-116 [26],Dose-Dependent Effect
same,IC50,DLD-1,2830 nM
same,Activity,HCT-116 [27],0.23%
same,Activity,HCT-116 [28],22.4%
same,inhibition at 0.3 µM,HCT-116 [29],12.4%
same,IC50,HCT-116 [30],300 nM
same,Activity,HCT-116 [31],35.5%
same,Activity,HCT-116 [32],56.6%
same,viability at 0.3 µM,HCT-116 [33],76.3%
same,IC50,SW480,33700 nM

# From ChEMBL document CHEMBL5346921, “Discovery of novel benzamide derivatives bearing benzamidophenyl and phenylacetamidophenyl scaffolds as potential antitumor agents via targeting PARP-1” (Eur J Med Chem, 2023)
